Measured values reported in US20120076811A1 (priority 2009, published 2012).
Entries after “also recorded” stand apart in the source; their conditions may differ.

Legend:
[1] = target: HA259-274 specific CD4+ T cells from DR1 transgenic mice immunized with H5N1-rHA1 protein/CFA (T cel)
[2] = target: CD4+ CD44+ cells from CFA only immunized DR1 transgenic mice (T cell receptors on cells)
[3] = target: HA259-274 specific CD4+ T cells from DR1 transgenic mice immunized with H5N1-rHA1 protein/CFA (T cel); remark: listed apart in the source
[4] = test system: lymphoid cells from H5N1-rHA1 immunized DR1 transgenic mice; assay type: cell-based, mouse
[5] = test system: lymphoid cells from H5N1-rHA1 immunized DR1 transgenic mice; assay type: cell-based, mouse; remark: listed apart in the source
[6] = test system: lymphoid cells from H5N1-rHA1 immunized DR1 transgenic mice; assay type: cell-based, mouse; remark: listed apart in the source
[7] = test system: lymphoid cells from rHA1 immunized DR1 transgenic mice; assay type: cell-based, mouse
[8] = test system: lymphoid cells from type II collagen immunized DR1 transgenic mice; assay type: cell-based, mouse

Substance	IFN-γ production in culture supernatant [5]	proliferation response ([3H]thymidine incorporation) [6]	proliferative response ([3H]thymidine incorporation) [7]	further results
HA259-274/DR1 tetramers (from UniProt P01903 26-216) (peptide-MHC)				tetramer positive population (% of the CD4+ CD44+ cells) [1]: 0.1; tetramer positive cells [2]: 0.01%; fold increased staining against control CLIP/DR1 tetramers [3]: 30 fold; tetramer positive population [3]: 3%
SNGNFIAPEYAYKIVK [HA259-274]	positive cytokine production	Strong dose dependent proliferation responses		IL-2 production in culture supernatant [4]: positive cytokine production
PKYVKQNTLKLAT [HA306-318]			Strong dose dependent responses	
INSSLPYQNIHPVTIGECPKY [HA298-317]			significantly lower; also recorded: no response	
KMRMATPLLMQALPM [CLIP89-105]	not	not		
AGFKGEQGPKGEPGP [CII280-294]				proliferative response ([3H]thymidine incorporation) [8]: Strong dose dependent responses
